Source: US5866562A, “Ring-bridged bis-quinolines” (Bayer Aktiengesellschaft, priority 1996, dated 1999)
pKi: −log10 of the molar value.

Legend:
[1] = target: apamine binding sites in bovine cerebral membranes (apamine-sensitive potassium channels); test: Binding of ^125 I-apamine to bovine cerebral membranes; details: ^125 I-apamine 30 pM; calf hippocampus membranes; pH 7.4; 60 min on ice
Procedure: 1) Binding of ^125 I-apamine to bovine cerebral membranes
Calfbrains were obtained from the local abattoir. The hippocampus was prepared on ice and a membrane suspension was made up by homogenization twice in buffer (100 mM Tris-HCl, KCl 5 mM, pH 7.4) and centrifugation at 43,000×g. In a total volume of 500 μl, the incubation mixture contained 200 μg of membrane protein, 30 pM ^125 I-apamine and test substances in the concentration range 1×10^-9 to 1×10^-4 M. The non-specific binding of ^125 I-apamine was determined in the presence of 1×10^-7 M unlabelled apamine.
After preincubation for 30 min at room temperature (test substances and membrane homogenate), the samples were placed on ice for 10 min before the radioligand was added. The main incubation time was 60 min on ice. When the reaction time had elapsed, an excess of ice-cooled incubation buffer was added to each sample and the mixture was filtered with suction through cellulose acetate/nitrate membrane filters. The amount of bound ^125 I-apamine was measured with a gamma counter.

[2] = system: apamine-sensitive rubidium efflux in PC12 cells (potassium channels); test: Non-radioactive Rb+ efflux assay for the identification of potassium channel modulators; type: cell-based; details: Rattus norvegicus, PC-12, 10 min, at a test concentration of 10 μM, 50 mM KCl depolarization
Procedure: 2) Non-radioactive Rb^+ efflux assay for the identification of potassium channel modulators
The potassium in PC12 cells is exchanged with rubidium, which is not present in the cells. This exchange is performed by incubating the cells over a period of 4 h in a physiological buffer containing 5.4 mM RbCl without KCl. This rubidium subsequently serves as a tracer for potassium.
The cells laden with Rb^+ in this way are washed three times and then stimulated by depolarization with 50 mM KCl to open potassium channels (10 min), causing Rb^+ to flow out of the cells into the supernatant according to the concentration gradient.
The rubidium contents in the cell supernatant and in the residual cells after they have been lysed with 1% Triton X-100 are then determined by means of atomic absorption spectroscopy. The relative proportion of rubidium in the cell supernatant (=Rb^+ efflux) is used as a measure of the potassium channel activity.
The effect of substances on the channel activity is measured by co-incubating the test substance over the ten-minute stimulation period and determining its effect on the Rb^+ efflux in the manner described above.

Structure (SMILES) | pKi [1] | inhibition at 10 µM [2] [%]
c1ccc2c(N3CCCN(c4ccnc5ccccc45)CC3)ccnc2c1 [Example 1] | 6.11 | –
Cc1cc(N2CCCN(c3cc(C)nc4cccc(O)c34)CC2)c2c(O)cccc2n1 [Example 7] | – | 58
Cc1cc(N2CCCN(c3cc(C)nc4c(C)cccc34)CC2)c2cccc(C)c2n1 [Example 12] | 7.46 | 73
